The results in this text go back to ChEMBL document CHEMBL3886923, “BTK inhibitors” (2016).

A word on the IC50: it is the point on the concentration scale where inhibition reaches its midpoint.

The experiment addresses Tyrosine-protein kinase BTK (Homo sapiens, UniProt Q06187). In words: LANCE-TR-FRET Assay: Assay Method B: BTK enzymatic activity was determined with the LANCE (Lanthanide Chelate Excite) TR-FRET (Time-resolved fluorescence resonance energy transfer) assay. In this assay, the potency (IC50) of each compound was determined from an eleven point (1:3 serial dilution; final compound concentration range in assay from 1 μM to 0.017 nM) titration curve using the following outlined procedure. To each well of a black non-binding surface Corning 384-well microplate (Corning Catalog #3820), 5 nL of compound (2000 fold dilution in final assay volume of 10 μL) was dispensed, followed by the addition of 7.5 μL of 1× kinase buffer (50 mM Hepes 7.5, 10 mM MgCl2, 0.01% Brij-35, 1 mM EGTA, 0.05% BSA & 1 mM DTT) containing 5.09 pg/μL (66.67 pM) of BTK enzyme (recombinant protein from baculovirus-transfected Sf9 cells: full-length BTK, 6HIS-tag cleaved). Following a 60 minute compound & enzyme incubation, each reaction was initiated by the addition of 2.5 μL 1× kinase buffer containing 8 μM biotinylated "A5" peptide (Biotin-EQEDEPEGDYFEWLE-NH2), and 100 μM ATP. The final reaction in each well of 10 μL consists of 50 pM hBTK, 2 μM biotin-A5-peptide, and 25 μM ATP. Phosphorylation reactions were allowed to proceed for 120 minutes. […].

Chain of Tyrosine-protein kinase BTK (Q06187 whole entry): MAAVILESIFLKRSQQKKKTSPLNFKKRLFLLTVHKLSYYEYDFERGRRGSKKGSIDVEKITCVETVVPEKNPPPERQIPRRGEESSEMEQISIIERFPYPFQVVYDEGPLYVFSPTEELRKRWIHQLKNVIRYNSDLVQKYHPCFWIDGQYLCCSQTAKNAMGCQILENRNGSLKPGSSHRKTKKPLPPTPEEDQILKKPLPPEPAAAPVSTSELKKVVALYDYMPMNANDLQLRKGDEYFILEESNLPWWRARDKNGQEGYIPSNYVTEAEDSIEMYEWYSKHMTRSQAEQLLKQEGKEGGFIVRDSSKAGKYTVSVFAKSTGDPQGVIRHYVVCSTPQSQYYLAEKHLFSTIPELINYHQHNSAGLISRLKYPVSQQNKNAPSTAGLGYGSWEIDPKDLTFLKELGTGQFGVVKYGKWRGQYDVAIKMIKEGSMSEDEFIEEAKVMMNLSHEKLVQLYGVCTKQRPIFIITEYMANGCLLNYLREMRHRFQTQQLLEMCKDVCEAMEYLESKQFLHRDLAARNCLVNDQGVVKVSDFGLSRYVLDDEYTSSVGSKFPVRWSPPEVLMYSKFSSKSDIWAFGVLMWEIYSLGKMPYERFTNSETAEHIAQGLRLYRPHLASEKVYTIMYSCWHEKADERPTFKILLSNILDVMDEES

On to `Cn1ncc2c1CCC[C@@H]2n1nc(-c2ccc(C(=O)Nc3cc(C(F)(F)F)ccn3)cc2)c2c(N)ncnc21`, for which the IC50 is 2.7 nM.
